Converted amounts (≈) assume the structure as drawn. One block for each molecule: values may come before it.
Legend:
Assay type in all cases: functional
Streptococcus pneumoniae [1] = experiment: Compound was tested for antibacterial activity against Streptococcus pneumoniae 030SJ1 EryRc using standard broth microdilution assay.
Haemophilus influenzae = experiment: Compound was tested for antibacterial activity against Haemophilus influenzae 351HT3 using standard broth microdilution assay.
Escherichia coli = experiment: Compound was tested for antibacterial activity against Escherichia coli 250 UC5 using standard broth microdilution assay.
Staphylococcus aureus = experiment: Compound was tested for antibacterial activity against Staphylococcus aureus 011UC4 using standard broth microdilution assay.
Streptococcus pneumoniae [2] = experiment: Compound was tested for antibacterial activity against Streptococcus pneumoniae 030SJ5i EryRi using standard broth microdilution assay.
Streptococcus pneumoniae [3] = experiment: Compound was tested for antibacterial activity against Streptococcus pneumoniae 032UC1 using standard broth microdilution assay.
Streptococcus pyogenes = experiment: Compound was tested for antibacterial activity against Streptococcus pyogenes 02A1UC1 using standard broth microdilution assay.

SMILES: CC[C@H]1OC(=O)[C@H](C)C(=O)[C@H](C)[C@@H](O[C@@H]2O[C@H](C)C[C@H](N(C)C)[C@H]2O)[C@](C)(OC)C[C@@H](C)CN(C)[C@H](C)[C@@H](O)[C@]1(C)O
MIC (Streptococcus pneumoniae [1]): 40 µg/mL (≈ 66.4 µM)
MIC (Haemophilus influenzae): 40 µg/mL (≈ 66.4 µM)
MIC (Escherichia coli): 40 µg/mL (≈ 66.4 µM)
MIC (Staphylococcus aureus): 40 µg/mL (≈ 66.4 µM)
MIC (Streptococcus pneumoniae [2]): 40 µg/mL (≈ 66.4 µM)
MIC (Streptococcus pneumoniae [3]): 40 µg/mL (≈ 66.4 µM)
MIC (Streptococcus pyogenes): 40 µg/mL (≈ 66.4 µM)

SMILES: CC[C@H]1OC(=O)[C@H](C)C(=O)[C@H](C)[C@@H](OC2O[C@H](C)C[C@H](N(C)C)[C@H]2O)[C@](C)(OC)C[C@@H](C)C(=O)[C@H](C)[C@H]2N(CCCCn3cnc(-c4cccnc4)c3)C(=O)O[C@]12C (some centres not stated)
MIC (Streptococcus pneumoniae [1]): 0.02 µg/mL (≈ 0.0246 µM)
MIC (Haemophilus influenzae): 1.2 µg/mL (≈ 1.48 µM)
MIC (Escherichia coli): 10 µg/mL (≈ 12.3 µM)
MIC (Staphylococcus aureus): 0.04 µg/mL (≈ 0.0493 µM)
MIC (Streptococcus pneumoniae [2]): 0.02 µg/mL (≈ 0.0246 µM)
MIC (Streptococcus pneumoniae [3]): 0.02 µg/mL (≈ 0.0246 µM)
MIC (Streptococcus pyogenes): 0.02 µg/mL (≈ 0.0246 µM)

SMILES: CC[C@H]1OC(=O)[C@H](C)[C@@H](O[C@H]2C[C@@](C)(OC)[C@@H](O)[C@H](C)O2)[C@H](C)[C@@H](O[C@@H]2O[C@H](C)C[C@H](N(C)C)[C@H]2O)[C@](C)(O)C[C@@H](C)CN(C)[C@H](C)[C@@H](O)[C@]1(C)O [AZITHROMYCIN]
MIC (Streptococcus pneumoniae [1]): 40 µg/mL (≈ 53.4 µM)
MIC (Haemophilus influenzae): 1.2 µg/mL (≈ 1.6 µM)
MIC (Escherichia coli): 20 µg/mL (≈ 26.7 µM)
MIC (Staphylococcus aureus): 0.3 µg/mL (≈ 0.401 µM)
MIC (Streptococcus pneumoniae [2]): 40 µg/mL (≈ 53.4 µM)
MIC (Streptococcus pneumoniae [3]): 0.15 µg/mL (≈ 0.2 µM)
MIC (Streptococcus pyogenes): 0.6 µg/mL (≈ 0.801 µM)

Now from value to molecule:

MIC (Streptococcus pneumoniae [1]): 40 µg/mL (≈ 52.4 µM)
MIC (Haemophilus influenzae): 2.5 µg/mL (≈ 3.28 µM)
MIC (Escherichia coli): 40 µg/mL (≈ 52.4 µM)
MIC (Staphylococcus aureus): 1.2 µg/mL (≈ 1.57 µM)
MIC (Streptococcus pneumoniae [2]): 10 µg/mL (≈ 13.1 µM)
MIC (Streptococcus pneumoniae [3]): 1.2 µg/mL (≈ 1.57 µM)
MIC (Streptococcus pyogenes): 0.6 µg/mL (≈ 0.786 µM)
SMILES: CC[C@H]1OC(=O)[C@H](C)[C@@H](O[C@H]2C[C@@](C)(OC)[C@@H](O)[C@H](C)O2)[C@H](C)[C@@H](OC2O[C@H](C)C[C@H](N(C)C)[C@H]2O)[C@](C)(OC)C[C@@H](C)C(=O)N[C@H](C)[C@@H](O)[C@]1(C)O (some centres not stated)

MIC (Streptococcus pneumoniae [1]): 40 µg/mL (≈ 53.7 µM)
MIC (Haemophilus influenzae): 10 µg/mL (≈ 13.4 µM)
MIC (Escherichia coli): 40 µg/mL (≈ 53.7 µM)
MIC (Staphylococcus aureus): 20 µg/mL (≈ 26.8 µM)
MIC (Streptococcus pneumoniae [2]): 40 µg/mL (≈ 53.7 µM)
MIC (Streptococcus pneumoniae [3]): 40 µg/mL (≈ 53.7 µM)
MIC (Streptococcus pyogenes): 40 µg/mL (≈ 53.7 µM)
SMILES: CC[C@H]1OC(=O)[C@H](C)[C@@H](O[C@H]2C[C@@](C)(OC)[C@@H](O)[C@H](C)O2)[C@H](C)[C@@H](O[C@@H]2O[C@H](C)C[C@H](N(C)C)[C@H]2O)[C@](C)(OC)C[C@@H](C)C2=N[C@H](C)[C@@H](O2)[C@]1(C)O

MIC (Streptococcus pneumoniae [1]): > 40 µg/mL
MIC (Haemophilus influenzae): 2.5 µg/mL (≈ 3.28 µM)
MIC (Escherichia coli): 20 µg/mL (≈ 26.2 µM)
MIC (Staphylococcus aureus): 1.2 µg/mL (≈ 1.57 µM)
MIC (Streptococcus pneumoniae [2]): > 40 µg/mL
MIC (Streptococcus pneumoniae [3]): 0.15 µg/mL (≈ 0.197 µM)
MIC (Streptococcus pyogenes): 0.15 µg/mL (≈ 0.197 µM)
SMILES: CC[C@H]1OC(=O)[C@H](C)[C@@H](O[C@H]2C[C@@](C)(OC)[C@@H](O)[C@H](C)O2)[C@H](C)[C@@H](O[C@@H]2O[C@H](C)C[C@H](N(C)C)[C@H]2O)[C@](C)(OC)C[C@@H](C)CN(C)[C@H](C)[C@@H](O)[C@]1(C)O

Source: ChEMBL document CHEMBL1130953, “Synthesis of 6-O-methyl-azithromycin and its ketolide analogue via Beckmann rearrangement of 9(E)-6-O-methyl-erythromycin oxime” (1998)
